pIC50: −log10 of the molar value.
Legend:
[1] = tested on: PC3 cells; test: PC3 growth inhibition (Cell-titer glo, 72 hours); assay type: cell-based; settings: Homo sapiens, PC-3, 72 h, read-out: Percent Viability, PC3 cells, compound concentration 1.667 μM, 72 hours
Method in brief: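 After 72 h compound treatment in AIM serum-free medium (37 °C, 5% CO2), viability of overnight-plated PC3 cells (8×10^4 cells/ml, RPMI1640-maintained) is read by CellTiter-Glo luminescence versus DMSO. Curves give GI50, LD50 or single-concentration % remaining viability.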

[2] = biological target: hNAMPT protein (Homo sapiens (Human), UniProt P43490); test: NAMPT enzyme assay (TR-FRET/HTRF with BodiPY ligand); assay type: binding; settings: for inhibition at 1 µM: NAMPT inhibition at compound concentration 1 μM, read-out: Percent Inhibition; for pIC50: NAMPT inhibition, IC50 range class
Method in brief: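 Ligand displacement by TR-FRET: BodiPY emission (520 nm) over terbium (486 nm) after 320 nm excitation. Compound, BodiPY ligand, hNAMPT and anti-6His-Tb incubated 1 h at room temperature, dark, at pH 7.5. Percent inhibition computed versus DMSO; concentration-response curves fitted for IC50.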

Sequence of hNAMPT protein (P43490 whole entry): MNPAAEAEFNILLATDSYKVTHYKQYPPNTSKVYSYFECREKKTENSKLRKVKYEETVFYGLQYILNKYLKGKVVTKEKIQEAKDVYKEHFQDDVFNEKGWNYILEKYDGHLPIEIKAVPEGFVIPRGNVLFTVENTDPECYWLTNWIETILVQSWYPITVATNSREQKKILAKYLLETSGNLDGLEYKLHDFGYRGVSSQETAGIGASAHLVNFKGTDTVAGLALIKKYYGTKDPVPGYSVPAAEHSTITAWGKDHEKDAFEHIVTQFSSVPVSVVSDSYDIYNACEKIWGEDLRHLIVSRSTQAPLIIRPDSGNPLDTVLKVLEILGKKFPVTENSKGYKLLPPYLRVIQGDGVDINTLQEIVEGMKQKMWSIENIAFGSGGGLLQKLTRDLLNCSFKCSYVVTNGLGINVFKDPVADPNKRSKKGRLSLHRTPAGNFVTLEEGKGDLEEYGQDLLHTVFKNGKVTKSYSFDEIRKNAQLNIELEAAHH

`CCOc1cc(-c2cccnc2OC)nc2cc(C(=O)NCCc3c[nH]nc3C)ccc12` [Compound I-144, 4-ethoxy-2-(2-methoxypyridin-3-yl)-N-[2-(3-methyl-1H-pyrazol-4-yl)ethyl]quinoline-7-carboxamide] gave a viability at 1.667 µM [1] of 2%, an inhibition at 1 µM [2] of 94% and a pIC50 [2] of 7.30 to 8.00.

Work on `CCOc1cc(-c2ccc(F)cc2OC)nc2cc(C(=O)NCCCc3nnc[nH]3)ccc12` [Compound I-165, 4-ethoxy-2-(4-fluoro-2-methoxyphenyl)-N-[3-(4H-1,2,4-triazol-3-yl)propyl]quinoline-7-carboxamide] yielded a viability at 1.667 µM [1] of 1%, an inhibition at 1 µM [2] of 99% and a pIC50 [2] of 7.30 to 8.00.

Work on `CCOc1nc(-c2ccc(F)cc2)nc2cc(C(=O)NCC(C)Cc3ncc[nH]3)ccc12` (stereo not drawn) [Compound I-18, 4-ethoxy-2-(4-fluorophenyl)-N-[3-(1H-imidazol-2-yl)-2-methylpropyl]quinazoline-7-carboxamide] yielded a viability at 1.667 µM [1] of 0%, an inhibition at 1 µM [2] of 99% and a pIC50 [2] of 7.30 to 8.00.

`CCOc1cc(-c2ccc(=O)n(C)c2)nc2cc(C(=O)NCCc3[nH]nnc3C)ccc12` [Compound I-76, 4-ethoxy-2-(1-methyl-6-oxo-1,6-dihydropyridin-3-yl)-N-[2-(4-methyl-1H-1,2,3-triazol-5-yl)ethyl]quinoline-7-carboxamide] gave a viability at 1.667 µM [1] of 11%, an inhibition at 1 µM [2] of 93% and a pIC50 [2] of 7.00 to 7.30.

With `COCCOc1nc(-c2ccc(F)cc2)nc2cc(C(=O)NCCCc3ncc[nH]3)ccc12` [Compound I-37, 2-(4-fluorophenyl)-N-[3-(1H-imidazol-2-yl)propyl]-4-(2-methoxyethoxy)quinazoline-7-carboxamide] the viability at 1.667 µM [1] was 2%, the inhibition at 1 µM [2] was > 99% and the pIC50 [2] was > 8.00.

`CCOc1cc(-c2ccc(C)nc2)nc2cc(C(=O)NCCCc3[nH]nnc3C)ccc12` [Compound I-112, 4-ethoxy-2-(6-methylpyridin-3-yl)-N-[3-(4-methyl-1H-1,2,3-triazol-5-yl)propyl]quinoline-7-carboxamide] showed a viability at 1.667 µM [1] of 2%, an inhibition at 1 µM [2] of 99% and a pIC50 [2] of 7.30 to 8.00.

`CCOc1cc(-c2cccnc2OC)nc2cc(C(=O)NCCCc3ccn[nH]3)ccc12` [Compound I-150, 4-ethoxy-2-(2-methoxypyridin-3-yl)-N-[3-(1H-pyrazol-5-yl)propyl]quinoline-7-carboxamide] showed a viability at 1.667 µM [1] of 2%, an inhibition at 1 µM [2] of 95% and a pIC50 [2] of 7.30 to 8.00.

Compound `CCOc1cc(-c2ccc(Cl)s2)nc2cc(C(=O)NCCc3cnn[nH]3)ccc12` [Compound I-176, 2-(5-chloro-2-thienyl)-4-ethoxy-N-[2-(1H-1,2,3-triazol-5-yl)ethyl]quinoline-7-carboxamide] has a viability at 1.667 µM [1] of 4%, an inhibition at 1 µM [2] of 99% and a pIC50 [2] of 7.30 to 8.00.

For `CCCc1nc(-c2ccc(F)cc2)nc2cc(C(=O)NCCCc3ncc[nH]3)ccc12` [Compound I-16, 2-(4-fluorophenyl)-N-[3-(1H-imidazol-2-yl)propyl]-4-propylquinazoline-7-carboxamide], the viability at 1.667 µM [1] was 0%, the inhibition at 1 µM [2] was 100% and the pIC50 [2] was > 8.00.

`CCOc1cc(-c2ccc(F)cc2)nc2cc(C(=O)NCCCc3nnc(N)[nH]3)ccc12` [Compound I-220, N-[3-(5-amino-4H-1,2,4-triazol-3-yl)propyl]-4-ethoxy-2-(4-fluorophenyl)quinoline-7-carboxamide] showed a viability at 1.667 µM [1] of 2%, an inhibition at 1 µM [2] of 92% and a pIC50 [2] of 7.00 to 7.30.

In the case of `CCOc1cc(-c2cccnc2OC)nc2cc(C(=O)NCCc3cnn[nH]3)ccc12` [Compound I-190, 4-ethoxy-2-(2-methoxypyridin-3-yl)-N-[2-(1H-1,2,3-triazol-5-yl)ethyl]quinoline-7-carboxamide], the viability at 1.667 µM [1] was 5%, the inhibition at 1 µM [2] was 94% and the pIC50 [2] was 7.00 to 7.30.

With `O=C(NCCCc1ncc[nH]1)c1ccc2c(OCC3CC3)nc(-c3ccc(F)cc3)nc2c1` [Compound I-40, 4-(cyclopropylmethoxy)-2-(4-fluorophenyl)-N-[3-(1H-imidazol-2-yl)propyl]quinazoline-7-carboxamide] the viability at 1.667 µM [1] was 3%, the inhibition at 1 µM [2] was > 99% and the pIC50 [2] was > 8.00.

`CCOc1cc(-c2ccc(C)s2)nc2cc(C(=O)NCCCc3nnc[nH]3)ccc12` [Compound I-223, 4-ethoxy-2-(5-methyl-2-thienyl)-N-[3-(4H-1,2,4-triazol-3-yl)propyl]quinoline-7-carboxamide] was tested, and the viability at 1.667 µM [1] was 3%, the inhibition at 1 µM [2] was > 99% and the pIC50 [2] was 7.30 to 8.00.

With `CCOc1cc(-c2cc(F)ccc2OC)nc2cc(C(=O)NCCc3nnc[nH]3)ccc12` [Compound I-182, 4-ethoxy-2-(5-fluoro-2-methoxyphenyl)-N-[2-(4H-1,2,4-triazol-3-yl)ethyl]quinoline-7-carboxamide] the viability at 1.667 µM [1] was 5%, the inhibition at 1 µM [2] was 77% and the pIC50 [2] was < 7.00.

`CCOc1cc(-c2ccc(F)cc2)nc2cc(C(=O)NCc3nc(N)n[nH]3)ccc12` [Compound I-141, N-[(3-amino-1H-1,2,4-triazol-5-yl)methyl]-4-ethoxy-2-(4-fluorophenyl)quinoline-7-carboxamide] was tested, and the viability at 1.667 µM [1] was 9%, the inhibition at 1 µM [2] was 82% and the pIC50 [2] was < 7.00.

For `CCOc1cc(-c2ccc(OC)nc2)nc2cc(C(=O)NCCCc3nnc[nH]3)ccc12` [Compound I-101, 4-ethoxy-2-(6-methoxypyridin-3-yl)-N-[3-(4H-1,2,4-triazol-3-yl)propyl]quinoline-7-carboxamide], the viability at 1.667 µM [1] was 2%, the inhibition at 1 µM [2] was 96% and the pIC50 [2] was 7.30 to 8.00.

In the case of `CCOc1cc(-c2ccc(OC)nc2)nc2cc(C(=O)NCc3nc4cnccc4[nH]3)ccc12` [Compound I-193, 4-ethoxy-N-(1H-imidazo[4,5-c]pyridin-2-ylmethyl)-2-(6-methoxypyridin-3-yl)quinoline-7-carboxamide], the viability at 1.667 µM [1] was 3%, the inhibition at 1 µM [2] was > 99% and the pIC50 [2] was > 8.00.

With `CCCc1nc(-c2ccc(Cl)cc2)nc2cc(C(=O)NCc3ccc4nccn4c3)ccc12` [Compound I-8, 2-(4-chlorophenyl)-N-(imidazo[1,2-a]pyridin-6-ylmethyl)-4-propylquinazoline-7-carboxamide] the viability at 1.667 µM [1] was 1%, the inhibition at 1 µM [2] was 98% and the pIC50 [2] was > 8.00.

For `CCOc1cc(-c2ccc(F)cc2)nc2cc(C(=O)NCc3ccc4ncnn4c3)ccc12` [Compound I-84, 4-ethoxy-2-(4-fluorophenyl)-N-([1,2,4]triazolo[1,5-a]pyridin-6-ylmethyl)quinoline-7-carboxamide], the viability at 1.667 µM [1] was 1%, the inhibition at 1 µM [2] was 99% and the pIC50 [2] was > 8.00.

With `CCOc1nc(-c2ccc(F)cc2)nc2cc(C(=O)NCc3ccc4nccn4c3)ccc12` [Compound I-34, 4-ethoxy-2-(4-fluorophenyl)-N-(imidazo[1,2-a]pyridin-6-ylmethyl)quinazoline-7-carboxamide] the viability at 1.667 µM [1] was 1%, the inhibition at 1 µM [2] was 97% and the pIC50 [2] was > 8.00.

`COCCOc1cc(-c2ccc(F)cc2)nc2cc(C(=O)NCCCc3cc[nH]n3)ccc12` [Compound I-120, 2-(4-fluorophenyl)-4-(2-methoxyethoxy)-N-[3-(1H-pyrazol-3-yl)propyl]quinoline-7-carboxamide] showed a viability at 1.667 µM [1] of 2%, an inhibition at 1 µM [2] of 94% and a pIC50 [2] of 7.30 to 8.00.

In the case of `CCOc1cc(-c2ccnc(OC)c2)nc2cc(C(=O)NCCc3cnn[nH]3)ccc12` [Compound I-195, 4-ethoxy-2-(2-methoxypyridin-4-yl)-N-[2-(1H-1,2,3-triazol-5-yl)ethyl]quinoline-7-carboxamide], the viability at 1.667 µM [1] was 19%, the inhibition at 1 µM [2] was 89% and the pIC50 [2] was 7.00 to 7.30.

For `CCNc1cc(OCC)c2ccc(C(=O)NCCCc3ncc[nH]3)cc2n1` [Compound I-42, 4-ethoxy-2-(ethylamino)-N-[3-(1H-imidazol-2-yl)propyl]quinoline-7-carboxamide], the viability at 1.667 µM [1] was 11%, the inhibition at 1 µM [2] was 83% and the pIC50 [2] was < 7.00.

With `CCCc1nc(-c2ccc(Cl)cc2)nc2cc(C(=O)NCC3CC3c3ncc[nH]3)ccc12` (racemic) [Compound I-59, 2-(4-chlorophenyl)-N-{[trans-(1,2)-2-(1H-imidazol-2-yl)cyclopropyl]methyl}-4-propylquinazoline-7-carboxamide] the viability at 1.667 µM [1] was 2%, the inhibition at 1 µM [2] was 90% and the pIC50 [2] was 7.00 to 7.30.

For `CCCc1nc(-c2ccc(Cl)cc2)nc2cc(C(=O)NCCCc3nnc[nH]3)ccc12` [Compound I-7, 2-(4-chlorophenyl)-4-propyl-N-[3-(4H-1,2,4-triazol-3-yl)propyl]quinazoline-7-carboxamide], the viability at 1.667 µM [1] was 1%, the inhibition at 1 µM [2] was 97% and the pIC50 [2] was 7.30 to 8.00.

`CCOc1cc(-c2ccc(F)cc2)nc2cc(C(=O)N[C@@H](C)c3nc4cnccc4[nH]3)ccc12` [Compound I-160, 4-ethoxy-2-(4-fluorophenyl)-N-[(1S)-1-(1H-imidazo[4,5-c]pyridin-2-yl)ethyl]quinoline-7-carboxamide] was tested, and the viability at 1.667 µM [1] was > 99%, the inhibition at 1 µM [2] was 60% and the pIC50 [2] was < 7.00.

In the case of `CCOc1cc(-c2ccc(F)cc2)nc2cc(C(=O)NCCc3cn(C)cn3)ccc12` [Compound I-6, 4-ethoxy-2-(4-fluorophenyl)-N-[2-(1-methyl-1H-imidazol-4-yl)ethyl]quinoline-7-carboxamide], the viability at 1.667 µM [1] was 1%, the inhibition at 1 µM [2] was 94% and the pIC50 [2] was 7.00 to 7.30.

In the case of `CCOc1cc(-c2ccc(OC)nc2)nc2cc(C(=O)NCCCc3[nH]nnc3C)ccc12` [Compound I-93, 4-ethoxy-2-(6-methoxypyridin-3-yl)-N-[3-(4-methyl-1H-1,2,3-triazol-5-yl)propyl]quinoline-7-carboxamide], the viability at 1.667 µM [1] was 2%, the inhibition at 1 µM [2] was 99% and the pIC50 [2] was 7.30 to 8.00.

From patent US10323018B2 (Millennium Pharmaceuticals, Inc., priority 2015, dated 2019)
